Test results reported in patent US10294202B2, “Pyrrolidinones as herbicides” (FMC Corporation, priority 2013, dated 2019).

Tests used:
[1] = system: bulrush, hardstem; test: Test F flood (paddy) test; type: in vivo, Scirpus juncoides; conditions: 21 d, scale 0-100
Description: Three plastic pots (ca. 16-cm diameter) per rate were partially filled with sterilized Tama silt loam soil comprising a 35:50:15 ratio of sand, silt and clay and 2.6% organic matter. Separate plantings for each of the three pots were as follows. Seeds from the U.S. of monochoria (Monochoria vaginalis), sedge, umbrella (small-flower umbrella sedge, Cyperus difformis), bulrush, […] bulrush, Scirpus juncoides), and […] (purple […] coccinea), were planted into one 16-cm pot for each rate. Seeds from the U.S. of flatsedge, rice (rice flatsedge, Cyperus iria), sprangletop, Brdd. (bearded sprangletop, Leptochloa fascicularis), one stand of 9 or 10 water seeded rice seedlings (Rice, W.S. Jap, Oryza sativa cv. 'Japonica-[…]' or Rice, W.S. Ind, 'Indica'), and two stands of 3 or 4 seedlings of rice, transplanted (transplanted rice, Oryza sativa cv. 'Japonica-[…]') were planted into one 16-cm pot for each rate. Seeds from the U.S. of barnyardgrass (Echinochloa crus-galli), […] (common […], Alisma plantago-aquatica), and watergrass, late (late watergrass, Echinochloa oryzicola) were planted into one 16-cm pot for each rate. Plantings were sequential so that crop and weed species were at the 2.0 to 2.5-leaf stage at time of treatment. […] Effects of treatments on rice and weeds were visually evaluated by comparison to untreated controls after 21 d. […]

[2] = system: Rice, W.S. Jap; test: Test F flood (paddy) test; type: in vivo, Oryza sativa cv. Japonica—M202; conditions: 21 d, scale 0-100
Description: Three plastic pots (ca. 16-cm diameter) per rate were partially filled with sterilized Tama silt loam soil comprising a 35:50:15 ratio of sand, silt and clay and 2.6% organic matter. Separate plantings for each of the three pots were as follows. Seeds from the U.S. of monochoria (Monochoria vaginalis), sedge, umbrella (small-flower umbrella sedge, Cyperus difformis), bulrush, […] bulrush, Scirpus juncoides), and […] (purple […] coccinea), were planted into one 16-cm pot for each rate. Seeds from the U.S. of flatsedge, rice (rice flatsedge, Cyperus iria), sprangletop, Brdd. (bearded sprangletop, Leptochloa fascicularis), one stand of 9 or 10 water seeded rice seedlings (Rice, W.S. Jap, Oryza sativa cv. 'Japonica-[…]' or Rice, W.S. Ind, 'Indica'), and two stands of 3 or 4 seedlings of rice, transplanted (transplanted rice, Oryza sativa cv. 'Japonica-[…]') were planted into one 16-cm pot for each rate. Seeds from the U.S. of barnyardgrass (Echinochloa crus-galli), […] (common […], Alisma plantago-aquatica), and watergrass, late (late watergrass, Echinochloa oryzicola) were planted into one 16-cm pot for each rate. Plantings were sequential so that crop and weed species were at the 2.0 to 2.5-leaf stage at time of treatment. Potted plants were grown in a greenhouse with day/night temperature settings of 30/27° C., and supplemental balanced lighting was provided to maintain a 16-h photoperiod. Test pots were maintained in the greenhouse until test completion. At time of treatment, test pots were flooded to 3 cm above the soil surface, treated by application of test compounds directly to the paddy water, and then maintained at that water depth for the duration of the test. Effects of treatments on rice and weeds were visually evaluated by comparison to untreated controls after 21 d. Plant response ratings, summarized in Table F, are based on a scale of 0 to 100 where 0 is no effect and 100 is complete control. A dash (-) response means no test result.

For `O=C1NCC(c2cccc(C(F)(F)F)c2)C1C(=O)Nc1ccccc1F` (racemic) [Compound 3], the “Plant response rating, Bulrush, Hardstem” value ([1]; 250 g ai/ha) was 0, the “Plant response rating, Bulrush, Hardstem” value ([1]; 500 g ai/ha) was 30 and the “Plant response rating, Rice, W.S. Jap” value ([2]; 250 g ai/ha) was 0. For the same molecule, the “Plant response rating, Rice, W.S. Jap” value ([2]; 500 g ai/ha) was 10.
